Reference: patent publication US8357687B2, “Macrocyclic indole derivatives useful as hepatitis C virus inhibitors” (priority 2008, dated 2013)

Columns and labels:
[1] = target: T1, HCV NS5B polymerase (NS5BΔC21) (Hepatitis C virus genotype 1b, UniProt Q9WMX2); assay: RNA-dependent RNA polymerase assay (enzyme inhibition assay); format: biochemical, HCV (genotype 1b consensus strain Con1)
T1 construct: NS5B (genotype 1b consensus strain Con1) lacking 21 C-terminal residues; made in house; host or cells: E. coli Rosetta 2 (DE3)
Description: The coding sequence for NS5B (genotype 1b consensus strain Con1) lacking 21 C-terminal residues was amplified from plasmid pFKI389/ns3-3′ (Genbank accession no. AJ242654), plasmid pCV-H77C (Genbank accession no. AF 011751.1) and subcloned into the pET21b plasmid as described previously (Pauwels et al. J. Virol., 2007). The NS5BΔC21 expression constructs were transformed into E. coli Rosetta 2 (DE3) (Novagen, Madison, Wis.). One hundred milliliters of LB-medium supplemented with carbenicillin (50 μg/mL) and chloramphenicol (34 μg/mL) was inoculated with one colony, grown overnight, and transferred to fresh LB-medium supplemented with 3% ethanol, carbenicillin and chloramphenicol, at a ratio of 1:200. Cells were grown to an optical density at 600 nm of 0.6, after which the expression cultures were shifted to a growth temperature of 20° C. following induction with ispopropyl-1-thio-β-D-galactopyranoside and MgCl2 at a final concentration of 0.4 mM and 10 μM, respectively. After 18 h of induction, cells were harvested by centrifugation and resuspended in 20 mM Tris-HCl, pH 7.5, 300 mM NaCl, 10% glycerol, 0.1% NP40, 4 mM MgCl2, 5 mM DTT supplemented with EDTA-free Complete Protease Inhibitor (Roche, Basel, Switzerland). Cell suspensions were disrupted by sonication and incubated with 10-15 mg/L of DNase I (Roche, Basel, Switzerland) for 30 min. Cell debris was removed through ultracentrifugation at 30,000×g for 1 hour and clarified cell lysate was flash frozen and stored at −80° C. prior to purification.
Clarified cell lysate was thawed and subsequently loaded onto a 5 mL pre-packed HisTrap FF column equilibrated with 25 mM HEPES, pH 7.5, 500 mM NaCl, 10% glycerol and 5 mM DTT. Proteins were eluted with 500 mM imidazole at a flow rate of 1 mL/min. Fractions containing the protein of interest were applied onto a pre-packed 26/10 HiPrep Desalting Column equilibrated with 25 mM HEPES, pH 7.5, 250 mM NaCl, 10% glycerol and 5 mM DTT. The buffer-exchanged NS5B peak was then applied onto a 6 ml Resource S column. Protein was eluted with an increasing salt gradient and fractions collected. Protein purity was assessed on Nu-PAGE pre-cast gels (Invitrogen, Carlsbad, Calif.). Purified NS5B samples were concentrated using Centri-Prep concentrators (Millipore, Billerica, Mass., USA) and protein concentrations were determined by spectrofotometry with the Nanodrop (Nanodrop Technologies, Wilmington, Del., USA).
Measurement of HCV NS5B polymerization activity was performed by evaluating the amount of radio labeled GTP incorporated by the enzyme in a newly synthesized RNA using […] RNA template/primer. The RdRp assay was carried out in 384-well plates. 2.5 nM of purified NS5B enzyme was pre-incubated for 10 min with 150 nM 5′-biotinylated oligo(rG13) primer, 15 nM poly(rC) template, in 18 mM Tris-HCl, pH 7.5, 5 mM MgCl2, 20.5 mM KCl, 17 mM NaCl and 2.5 mM of DTT. The test compounds were the added to the preformed polymerase-template complex, and incubated at room temperature for 15 min before the addition 600 nM of GTP, and 0.13 μCi of [^3H]GTP. 30 μL reaction mixture was incubated at room temperature for 2 h before stopping the reaction by adding 30 μL of streptavidin coated SPA-beads (GE Healthcare, Uppsala, Sweden) in 0.5 M EDTA. […] IC50 values represent the concentration of compound required to decrease by 50% the amount of RNA produced which is measured by the detection of incorporated radiolabeled GTP.

[2] = system: wild type replicon of genotype 1b (con1b) in Huh7-cure cells; assay: Transient replicon assay, wild type replicon of genotype 1b (Con1b); format: cell-based, HCV genotype 1b; conditions: Hepatitis C virus, transient wild type replicon genotype 1b, 48 h, luciferase, read-out: EC50-T Con1b
[3] = system: NS5B chimeric replicon of clinical isolate 1a_H77 in Huh7-cure cells; assay: Transient replicon assay, chimeric replicon of clinical isolate 1a_H77 (CI1); format: cell-based, HCV genotype 1a; conditions: Hepatitis C virus, 48 h, read-out: EC50-T CI1
[4] = Pharmacokinetic analysis after single oral administration; format: in vivo; conditions: male Sprague-Dawley rats, single oral dose 10 mg/kg, 7 h post dosing; for Kp at 7 h: rat, liver/plasma, read-out: Lever/plasma ratio
Method: Three male Sprague-Dawley rats were given a single oral dose of 10 mg/kg of the studied compounds. The compounds were administered by gavage as a solution in PEG400/2% Vitamine E Tocopherol polyethyleneglycol succinate (Vitamin E-TPGS). 7 hours after administration, the animals were sacrificed and plasma and liver samples taken. The samples were analyzed using a qualified research LC-MS/MS method to determine the concentration of the compound in the liver and the liver-to-plasma ratio at 7 h post dosing.

[5] = system: NS5B chimeric replicon of clinical isolate 1a—6 in Huh7-cure cells; assay: Transient replicon assay, chimeric replicon of clinical isolate 1a—6 (CI2); format: cell-based, HCV genotype 1a; conditions: Hepatitis C virus, 48 h, read-out: EC50-T CI2
[6] = target: T2, NS5B wild-type enzyme genotype 4a (UniProt O39929); assay: Enzyme binding assay (SPR, Biacore), genotype 4a; set-up: species or system HCV genotype 4a
T2 construct: fused on or other part: His6 tag
Method: (§1) The compounds of formula (I) were examined for their enzymatic binding kinetics or affinity using a Surface Plasmon Resonance (SPR)-based method, i.e. Biacore. A slow dissociation of the inhibiting compound from its viral target (low koff, low Kd) is believed to potentially reduce the development of drug resistance against anti-viral drugs (Dierynck et al. 2007. Journal of Virology, vol. 81, No. 24, 13845-13851). All measurements were performed on a Biacore T100 instrument (GE Healthcare). The purified HIS6-tagged NS5BΔC21 polymerases were immobilized using non-covalent capturing to an NTA sensor chip (GE Healthcare) in immobilization buffer (20 mM MOPS pH 7.4, 500 mM NaCl, 0.005% Tween-P20, 1 mM DTT, 50 μM EDTA). Interaction studies were all performed at 25° C. Inhibitors were serially diluted in running buffer (20 mM Tris-HCl pH 7.4, 150 mM NaCl, 50 μM EDTA, 1 mM DTT, 0.005% Tween-P20) containing 5% dimethyl sulfoxide (DMSO). Single-cycle kinetics were used, in which 5 increasing concentrations of compound were injected for a period of 300 s each in 1 single cycle, and dissociation was monitored for a period of 1200 s. The sensor surface was completely regenerated in between the cycles. Data were analyzed using simultaneous nonlinear regression analysis (global fitting) adapted for single-cycle kinetics with Biacore T100 BiaEval evaluation software 2.0 (GE Healthcare). The individual rate constants kon and koff and a derived affinity constant, Kd=koff/kon, were determined by a kinetic evaluation of the sensorgrams. The kinetic models accounted for bulk and limited mass transport effects. Every analysis was performed at least in two independent experiments. The dissociation rate of a kinetic interaction can be translated into a compound residence time (dissociative half-life t1/2=ln(2)/koff) representative for the interaction time between the polymerase and its inhibitor.
(§2) The observed association rate constants (kon), dissociation rate constants (koff), derived affinity constant (Kd) and dissociative half-life (t1/2) measured for compounds of formula (I) or subgroups thereof on NS5B wild-type enzyme genotypes 1a, 1b and 4a are given in Table 2.

[7] = target: T3, NS5B wild-type enzyme genotype 1b (Hepatitis C virus genotype 1b, UniProt Q9WMX2); assay: Enzyme binding assay (SPR, Biacore), genotype 1b
T3 construct: NS5B (genotype 1b consensus strain Con1) lacking 21 C-terminal residues; made in house; host or cells: E. coli Rosetta 2 (DE3)
Method: as §1, §2

[8] = target: T4, NS5B wild-type enzyme genotype 1a (Hepatitis C virus genotype 1a, UniProt P27958); assay: Enzyme binding assay (SPR, Biacore), genotype 1a; set-up: species or system HCV genotype 1a
T4 construct: The purified HIS6-tagged NS5BΔC21 polymerases were immobilized; made in house; host or cells: E. coli Rosetta 2 (DE3)
Method: as §1, §2

T4 sequence (P27958 2421-2990): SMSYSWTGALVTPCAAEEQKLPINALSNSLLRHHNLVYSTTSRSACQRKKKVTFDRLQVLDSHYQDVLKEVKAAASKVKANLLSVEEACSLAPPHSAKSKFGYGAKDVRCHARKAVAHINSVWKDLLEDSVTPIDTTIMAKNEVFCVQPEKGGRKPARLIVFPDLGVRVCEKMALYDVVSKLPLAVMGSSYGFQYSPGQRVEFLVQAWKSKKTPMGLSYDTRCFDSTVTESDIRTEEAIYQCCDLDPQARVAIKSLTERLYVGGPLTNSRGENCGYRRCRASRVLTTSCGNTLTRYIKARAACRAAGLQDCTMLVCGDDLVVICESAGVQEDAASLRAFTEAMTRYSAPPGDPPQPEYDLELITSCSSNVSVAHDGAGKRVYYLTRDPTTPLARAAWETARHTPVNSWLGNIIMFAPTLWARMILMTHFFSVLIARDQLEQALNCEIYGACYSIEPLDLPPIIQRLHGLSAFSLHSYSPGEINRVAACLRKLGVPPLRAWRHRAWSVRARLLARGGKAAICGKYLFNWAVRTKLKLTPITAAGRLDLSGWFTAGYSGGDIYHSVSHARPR

SMILES	IC50 [1] [nM]	EC50 [2] [nM]	EC50 [3] [nM]	Concentration Liver [4] [ng/g]	Kp at 7 h [4]	EC50 [5] [nM]	Kd ([6]; Kd=koff/kon) [nM]	koff ([6]; SPR, 25° C.) [s⁻¹]	kon ([6]; SPR, 25° C.)	t1/2 (dissociative half-life) ([6]; t1/2=ln(2)/koff) [min]	Kd [7] [nM]	koff ([7]; genotype 1b, SPR, 25° C.) [s⁻¹]	kon ([7]; genotype 1b, SPR, 25° C.)	t1/2 (dissociative half-life) ([7]; genotype 1b, t1/2=ln(2)/koff) [min]	Kd [8] [nM]	koff [8] [s⁻¹]	kon ([8]; genotype 1a, SPR, 25° C.)	t1/2 (dissociative half-life) ([8]; genotype 1a, t1/2=ln(2)/koff) [min]
CN1CCOCCN(C)S(=O)(=O)NC(=O)c2ccc3c(C4CCCCC4)c(n(C)c3c2)-c2ccccc2OCC1=O [Compound 10, 25-cyclohexyl-4,10,19-trimethyl-5,6,9,10-tetrahydro-2H,8H-14,18:17,20-di(metheno)-1,7,11,4,10,12,19-benzodioxathiatetraazacyclodocosine-3,13 (4H,12H,19H)-dione 11,11-dioxide]	161	75	121	1717	64	88												
CN1CCCCN(C)S(=O)(=O)NC(=O)c2ccc3c(C4CCCCC4)c(n(C)c3c2)-c2ccccc2OCC1=O [Compound 15, 24-cyclohexyl-4,9,18-trimethyl-4,5,6,7,8,9-hexahydro-13,17:16,19-di(metheno)-1,10,4,9,11,18-benzoxathiatetraazacyclohenicosine-3,12(2H,11H,18H)-dione 10,10-dioxide]	124	169	102	1524	99	99												
CN1CCCCCNC(=O)COc2cc(F)ccc2-c2c(C3CCCCC3)c3ccc(cc3n2C)C(=O)NS1(=O)=O [Compound 50, 25-cyclohexyl-23-fluoro-10,19-dimethyl-5,6,7,8,9,10-hexahydro-2H-14,18:17,20-di(metheno)-1,11,4,10,12,19-benzoxathiatetraazacyclodocosine-3,13(4H,12H,19H)-dione 11,11-dioxide]	109	254	117			156	9.1	0.002	2.2E+05 1/MS	5.72	25	0.0006	2.3E+04 1/MS	19.38	40	0.0067	1.7E+05 1/MS	1.72
